The test system of data set [1] is mimic wrinkles. Particulars: cited from earlier work.
In data set [2] the target is T1, muscle-type nicotinic acetylcholine receptor (α1, β1, δ and ε-subunits) (Homo sapiens, UniProt P02708+Q04844+Q07001).
T1 construct: expressed in transfected cells; host or cells: Xenopus laevis oocytes (nuclear injection of plasmids, CMV promoter)
In words: Inhibition of acetylcholine-induced current through muscle-type nAChR expressed in Xenopus laevis oocytes (two-electrode voltage clamp). The data set is classed as cell-based. Particulars: for inhibiting activity towards the muscle receptor, retrosequences compared with initial Az3 and [Tyr2]Az3: 1 mM.

For data set [3], the system named is male Balb mice. In words: Acute toxicity in mice (intraperitoneal and per os). The data set is classed as in vivo. Particulars: for acute toxicity after intraperitoneal administration: male Balb mice, 1, 3, 10 and 30 mg/kg i.p.; for acute toxicity per os (administration into the stomach): male Balb mice, 2.5, 10, 40, 160 mg/kg per os. On the procedure:
Estimation of acute toxicity (LD50) after intraperitoneal administration of peptide H-Trp-Trp-Pro-Lys-Pro-OH (SEQ ID NO: 1) was carried out on 40 male Balb mice weighting 20-23 g, separated into five equal groups. Mice were intraperitoneally injected with the peptide at doses of 1 mg/kg, 3 mg/kg, 10 mg/kg and 30 mg/kg in 0.2 ml sterile 0.9% NaCl solution. Control animals were injected with same volume of 0.9% NaCl.
Investigation of acute toxicity (LD50 per os) after administration of the peptide directly into a stomach by a special catheter was conducted on 40 male Balb mice weighting 20-23 g. Animals were randomly divided into 5 groups. The drug was applied at doses 2.5 mg/kg, 10 mg/kg, 40 mg/kg, 160 mg/kg in 0.2 ml sterile solution of 0.9%. Control animals were injected with the same volume of 0.9% NaCl.

Where [4] appears, read: cream containing 5% Vialox, 28-day application.

Consider nine compounds from patent US9550808B2, “Peptide inhibitors of nicotinic acetylcholine receptor” (LIMITED LIABILITY COMPANY SYNEURO, priority 2013, dated 2017).

Non-standard residues stand in square brackets, D forms with d. Residues, ends and D or L forms follow the SMILES beside them. *: point of attachment. Dab = NCC[C@H](N)C(=O)O; NHBn = c1ccc(CN*)cc1; βAla = NCCC(=O)O

T1 sequence (P02708 21-457): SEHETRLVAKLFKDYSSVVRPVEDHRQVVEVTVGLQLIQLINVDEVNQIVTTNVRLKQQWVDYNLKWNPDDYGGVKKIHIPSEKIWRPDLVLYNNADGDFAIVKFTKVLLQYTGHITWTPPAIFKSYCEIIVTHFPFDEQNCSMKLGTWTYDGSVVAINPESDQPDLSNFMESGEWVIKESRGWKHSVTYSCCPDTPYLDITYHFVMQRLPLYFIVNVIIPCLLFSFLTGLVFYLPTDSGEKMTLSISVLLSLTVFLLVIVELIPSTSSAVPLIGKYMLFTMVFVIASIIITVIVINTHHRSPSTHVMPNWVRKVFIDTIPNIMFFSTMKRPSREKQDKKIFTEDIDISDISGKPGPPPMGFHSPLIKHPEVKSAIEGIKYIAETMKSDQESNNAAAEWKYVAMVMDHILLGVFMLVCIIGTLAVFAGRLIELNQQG
T1 sequence (Q04844 21-493): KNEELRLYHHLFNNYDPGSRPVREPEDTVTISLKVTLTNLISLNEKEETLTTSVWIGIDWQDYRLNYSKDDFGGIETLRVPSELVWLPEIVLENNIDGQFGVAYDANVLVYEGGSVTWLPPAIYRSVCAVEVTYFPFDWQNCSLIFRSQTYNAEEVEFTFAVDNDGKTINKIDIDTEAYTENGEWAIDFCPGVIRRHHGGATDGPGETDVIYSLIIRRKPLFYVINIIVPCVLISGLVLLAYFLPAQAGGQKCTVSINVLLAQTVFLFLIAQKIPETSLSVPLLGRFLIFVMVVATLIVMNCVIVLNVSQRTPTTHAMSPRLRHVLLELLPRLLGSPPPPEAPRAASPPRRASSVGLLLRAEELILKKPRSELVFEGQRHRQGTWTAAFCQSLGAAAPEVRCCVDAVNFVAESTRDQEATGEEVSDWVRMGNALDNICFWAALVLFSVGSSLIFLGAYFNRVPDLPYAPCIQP
T1 sequence (P11230 24-501, further chain): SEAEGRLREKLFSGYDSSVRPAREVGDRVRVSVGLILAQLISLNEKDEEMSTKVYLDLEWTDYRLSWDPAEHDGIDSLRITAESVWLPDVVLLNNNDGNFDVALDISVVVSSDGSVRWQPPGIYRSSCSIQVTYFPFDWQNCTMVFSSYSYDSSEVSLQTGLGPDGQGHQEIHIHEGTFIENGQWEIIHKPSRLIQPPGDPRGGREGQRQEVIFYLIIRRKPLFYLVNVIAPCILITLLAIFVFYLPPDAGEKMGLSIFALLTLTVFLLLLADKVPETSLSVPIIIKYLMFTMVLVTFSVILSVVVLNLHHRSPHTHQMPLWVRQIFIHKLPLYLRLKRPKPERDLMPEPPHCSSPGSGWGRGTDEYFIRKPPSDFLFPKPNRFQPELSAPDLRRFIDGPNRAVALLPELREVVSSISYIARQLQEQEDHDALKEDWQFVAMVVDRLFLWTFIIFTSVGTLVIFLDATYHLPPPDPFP
T1 sequence (Q07001 22-517): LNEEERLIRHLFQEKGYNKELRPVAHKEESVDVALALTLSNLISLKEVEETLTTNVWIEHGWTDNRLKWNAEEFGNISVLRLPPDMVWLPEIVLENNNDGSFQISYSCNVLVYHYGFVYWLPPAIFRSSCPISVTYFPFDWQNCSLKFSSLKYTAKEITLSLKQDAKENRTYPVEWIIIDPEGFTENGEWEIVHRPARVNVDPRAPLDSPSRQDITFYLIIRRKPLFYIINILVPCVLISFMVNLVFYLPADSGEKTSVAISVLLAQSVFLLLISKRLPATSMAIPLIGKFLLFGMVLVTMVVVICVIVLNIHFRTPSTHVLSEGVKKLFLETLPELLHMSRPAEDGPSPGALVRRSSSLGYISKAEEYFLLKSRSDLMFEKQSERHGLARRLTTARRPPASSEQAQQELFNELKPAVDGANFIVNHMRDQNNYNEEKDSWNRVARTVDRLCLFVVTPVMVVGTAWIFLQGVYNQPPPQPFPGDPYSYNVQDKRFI

`NCCC(=O)N1CCC[C@H]1C(=O)N[C@@H](CCN)C(=O)NCc1ccccc1` [Syn-Ake, H-β-Ala-Pro-Dab-NHBzl] (H-[βAla]-Pro-[Dab]-NHBn): the “decrease of depth of wrinkles on foreheads” value in data set [1] (cream containing 4% Syn-Ake, 28-day application, volunteers) is listed as “up to 52%”. Further, in data set [2], the concentration for half-maximal inhibition (IC50) was 180 µM. For “Ac-Glu-Glu-Met-Gln-Arg-Arg-NH2 (Ac-EEMQRR-NH2) [argireline, cosmetic hexapeptide repeating a fragment of SNAP 25]”, in data set [1] (cream containing 10% argireline, topical 30-day use, volunteers), the “decrease in the depth of mimic wrinkles” value is reported as 30%. “DNWWPKPPHQGPRPPRPRPKP [azemiopsin, reference compound]”: in data set [2] (50 μM, 20 μM acetylcholine (FIG. 1)), the “blockage of the muscle receptor activity” value is on record as “Complete blockage”. Regarding “H-Gly-Pro-Arg-Pro-Ala-NH2 (H-GPRPA-NH2) [Vialox]”, in data set [1] (setting [4]), the “reduction of skin roughness” value is given as “up to 47%” and the “reduction of wrinkle size” value is reported as “up to 49%”. H-Tyr-D-Ala-Gly-Phe-Leu-OH [Leuphasyl]: in data set [1] (Leuphasyl in combination with argireline), the “enhancement of argireline effect” value is recorded as 1.5 fold. Consider “H-WWPKP-OH [SEQ ID NO: 1, H-Trp-Trp-Pro-Lys-Pro-OH]”, for which, in data set [3], the “acute toxicity after intraperitoneal administration” value is on record as “did not reveal any toxic effects” and the “acute toxicity per os (administration into the stomach)” value is listed as “no toxic effect was observed”. Further, in data set [3] (listed as SEQ ID NO:1), the “acute toxicity after intraperitoneal administration” value is recorded as “does not exhibit toxicity” and the “acute toxicity per os (administration into the stomach)” value is listed as “does not exhibit toxicity”. In data set [2] (150 μg/ml (FIG. 2)), the “inhibition of acetylcholine induced currents, comparison of overlapping pentapeptide fragments of azemiopsin” value is given as “most active”.

In data set [2], “H-WYPKP-NH2 [SEQ ID NO: 42, H-Trp-Tyr-Pro-Lys-Pro-NH2]” displayed a half-maximal inhibitory concentration (IC50) of 23 µM. For the same compound, the “times more functionally active than commercial analogue Syn-Ake” value in data set [2] (ratio of IC50 values) is reported as “eight”. With PKPWW, the “inhibiting activity towards the muscle receptor, retrosequences compared with initial Az3 and [Tyr2]Az3” value in data set [2] is on record as “reduced”. Same read-out and setting: the same measure for PKPYW: “reduced”.
